Laboratory results taken from patent publication US20200008426A1, “ACTIVE COMPOUND COMBINATIONS” (BAYER AKTIENGESELLSCHAFT, priority 2017, published 2020).
Several values for one entry are separate records, joined by “and”; a condition that tells them apart may be missing. Equal values may be shown once. Read-outs that look alike come from different tables or passages of the source.

Key:
Venturia inaequalis = assay: In vivo preventive test on Venturia (apples); settings: 10 days after inoculation
Description: The test is evaluated 10 days after the inoculation.

Puccinia triticina = assay: In vivo preventive Puccinia triticina test (wheat); settings: 8 days after inoculation
Description: After the spray coating has been dried, the plants are sprayed with a spore suspension of Puccinia triticina.
(§1) The test is evaluated 8 days after the inoculation.

Septoria tritici [1] = assay: In vivo preventive Septoria tritici test (wheat); settings: 21 days after inoculation
Description: After the spray coating has been dried, the plants are sprayed with a spore suspension of Septoria tritici.
The test is evaluated 21 days after the inoculation.

Alternaria alternata = assay: In vitro-Test with Alternaria alternata; type: cell-based
Pyricularia oryzae = type: cell-based
[2] = tested on: fish (Danio rerio) embryos; assay: In vivo ecotoxicity screening test on fish (Danio rerio); settings: active compound alone; fish embryos, 96 h, 28.5° C.
Description: with ECxi the Effect Concentration (EC) of each chemical i (in ppm) causing x % effect on the ecotoxicity test endpoint.
For each compound combination, the predicted ECx value is calculated. It is then compared to an experimentally measured value. The ratio of predicted versus measured effect for the combination (thereafter called the Model Deviation Ratio or MDR) is then calculated.
The environmental effect of the compound combinations was measured experimentally in laboratory ecotoxicity screening studies with fish (Danio rerio). […] Mortality was recorded after 96 h for each tested concentration and a reference control. […] Then, the MDR values were calculated.
• Solvent: 0.5% by weight dimethyl sulfoxide
This concentrate is then diluted with water to the desired a.i. concentration, leading to a maximal solvent concentration of 0.5% by weight. The compounds alone and the combinations were tested for five increasing concentrations between 0.01 and 1000 ppm a.i., (e.g. 0.1, 1.0, 10 and 100 ppm a.i). For the combinations, compounds A and B were mixed in a weight ratio of 5:1 to 1:5 and five increasing concentrations were tested for each ratio.

Sphaerotheca fuliginea = assay: In vivo preventive test on Sphaerotheca (cucumbers); settings: Table D1, 7 days after inoculation
Pyrenophora teres = assay: In vitro-Test with Pyrenophora teres; type: cell-based
Septoria tritici [3] = assay: In vitro-Test with Septoria tritici; type: cell-based; settings: 5 ppm, compound alone
Alternaria solani = assay: In vivo preventive test on Alternaria (tomatoes); settings: Alternaria solani, 72 h, read-out: Efficacy in % found
Description: The plants are then placed in an incubation cabinet at approximately 20° C. and a relative atmospheric humidity of 100%.
The test is evaluated 3 days after the inoculation.

Phakopsora pachyrhizi = assay: In vivo preventive test on Phakopsora (soybeans); settings: 7 days after inoculation
Leptosphaeria nodorum = assay: In vivo preventive Leptosphaeria nodorum test (wheat); settings: Table G1, 8 days after inoculation
Description: After the spray coating has been dried, the plants are sprayed with a spore suspension of Leptosphaeria nodorum.
as §1

Structure (SMILES): CC(C)(C)C(O)(CCc1ccc(Cl)cc1)Cn1cncn1 (centres unmarked) [Example 1.021, tebuconazole]
- Efficacy in % found (Venturia inaequalis; Table E1, 2.5 ppm a.i.): 4%
- Efficacy in % found (Venturia inaequalis; Table E1, 5 ppm a.i.): 34%
- Efficacy in % found (Venturia inaequalis; Table E1, 10 ppm a.i.): 44%
- Efficacy in % found (Puccinia triticina; 25 ppm a.i.): 22%
- Efficacy in % found (Puccinia triticina; 50 ppm a.i.): 78%
- Efficacy in % found (Puccinia triticina; 100 ppm a.i.): 89%
- Efficacy in % found (Septoria tritici [1]; 25 ppm a.i.): 0%
- Efficacy in % found (Septoria tritici [1]; 50 ppm a.i.): 0%
- Efficacy in % found (Septoria tritici [1]; 100 ppm a.i.): 0%
- Efficacy % (Alternaria alternata; 0.04 ppm): 19%
- Efficacy % (Alternaria alternata; 0.2 ppm): 24%
- Efficacy % (Alternaria alternata; 1 ppm): 36%
- Efficacy % (Pyricularia oryzae; 0.2 ppm): 87%
- Efficacy % (Pyricularia oryzae; 1 ppm): 87% and 89%
- Ecotoxicity LC50-96 h found [2]: 19.7 ppm a.i.
- Efficacy in % found (Sphaerotheca fuliginea; 2.5 ppm a.i.): 37%
- Efficacy in % found (Sphaerotheca fuliginea; 5 ppm a.i.): 69%
- Efficacy in % found (Sphaerotheca fuliginea; 10 ppm a.i.): 83%

Structure (SMILES): CON=C(C(=O)OC)c1ccccc1CON=C(C)c1cccc(C(F)(F)F)c1 [Example 3.020, trifloxystrobin]
- pest or weed control at 2.5 ppm (Puccinia triticina; Puccinia triticina, 192 h, Table H1, 2.5 ppm a.i., read-out: Efficacy in % found): 0%
- pest or weed control at 5 ppm (Puccinia triticina; Puccinia triticina, 192 h, Table H1, 5 ppm a.i., read-out: Efficacy in % found): 0%
- pest or weed control at 10 ppm (Puccinia triticina; Puccinia triticina, 192 h, Table H1, 10 ppm a.i., read-out: Efficacy in % found): 11%
- pest or weed control at 2.5 ppm (Septoria tritici [1]; Zymoseptoria tritici, 504 h, 2.5 ppm a.i., read-out: Efficacy in % found): 29%
- pest or weed control at 5 ppm (Septoria tritici [1]; Zymoseptoria tritici, 504 h, 5 ppm a.i., read-out: Efficacy in % found): 29%
- pest or weed control at 10 ppm (Septoria tritici [1]; Zymoseptoria tritici, 504 h, 10 ppm a.i., read-out: Efficacy in % found): 29%
- Efficacy % (Pyrenophora teres; 5 ppm): 6%
- Efficacy % (Pyricularia oryzae; 5 ppm): 98%
- Efficacy % (Septoria tritici [3]): 90%
- Ecotoxicity LC50-96 h found [2]: 0.24 ppm a.i.

Structure (SMILES): COc1ccnc(C(=O)N[C@H]2COC(=O)[C@H](Cc3ccccc3)[C@@H](OC(=O)C(C)C)[C@H](C)OC2=O)c1OCOC(=O)C(C)C [Example 3.025, (3S,6S,7R,8R)-8-benzyl-3-[({3-[(isobutyryloxy)methoxy]-4-methoxypyridin-2-yl}carbonyl)amino]-6-methyl-4,9-dioxo-1,5-dioxonan-7-yl 2-methylpropanoate]
- pest or weed control at 5 ppm (Alternaria solani): 18%
- pest or weed control at 10 ppm (Alternaria solani): 18%
- pest or weed control at 20 ppm (Alternaria solani): 58%
- pest or weed control at 37.5 ppm (Puccinia triticina; Puccinia triticina, 192 h, read-out: Efficacy in % found, Table H1, 37.5 ppm a.i.): 22%
- pest or weed control at 75 ppm (Puccinia triticina; Puccinia triticina, 192 h, read-out: Efficacy in % found, Table H1, 75 ppm a.i.): 67%
- pest or weed control at 150 ppm (Puccinia triticina; Puccinia triticina, 192 h, read-out: Efficacy in % found, Table H1, 150 ppm a.i.): 89%
- pest or weed control at 37.5 ppm (Septoria tritici [1]; Zymoseptoria tritici, 504 h, read-out: Efficacy in % found, 37.5 ppm a.i.): 13%
- pest or weed control at 150 ppm (Septoria tritici [1]; Zymoseptoria tritici, 504 h, read-out: Efficacy in % found, 150 ppm a.i.): 63%
- Efficacy % (Pyrenophora teres; 100 ppm): 10%
- Efficacy % (Pyricularia oryzae; 0.8 ppm): 91% and 67%
- Efficacy % (Pyricularia oryzae; 4 ppm): 84% and 85%
- Efficacy % (Pyricularia oryzae; 20 ppm): 100% and 72%
- Ecotoxicity LC50-96 h found [2]: 1.87 ppm a.i.
- Efficacy in % found (Phakopsora pachyrhizi; Table C2, 5 ppm a.i.): 23%
- Efficacy in % found (Phakopsora pachyrhizi; Table C2, 10 ppm a.i.): 40%
- Efficacy in % found (Phakopsora pachyrhizi; Table C2, 20 ppm a.i.): 63%

Structure (SMILES): COCC(=O)N(c1c(C)cccc1C)C(C)C(=O)OC (centres unmarked) [Example 12.003, metalaxyl]
- Efficacy in % found (Venturia inaequalis; Table E2, 50 ppm a.i.): 11%
- Efficacy in % found (Venturia inaequalis; Table E2, 100 ppm a.i.): 11%
- Efficacy in % found (Venturia inaequalis; Table E2, 200 ppm a.i.): 19%
- Efficacy in % found (Leptosphaeria nodorum; 250 ppm a.i.): 29%
- Efficacy in % found (Leptosphaeria nodorum; 500 ppm a.i.): 0%
- Efficacy in % found (Leptosphaeria nodorum; 1000 ppm a.i.): 0%
- Efficacy in % found (Puccinia triticina; 1000 ppm a.i.): 30% and 44%
- Efficacy in % found (Septoria tritici [1]; 250 ppm a.i.): 0%
- Efficacy in % found (Septoria tritici [1]; 500 ppm a.i.): 0%
- Efficacy in % found (Septoria tritici [1]; 1000 ppm a.i.): 0%
- Ecotoxicity LC50-96 h found [2]: >200 ppm a.i.
- Efficacy in % found (Phakopsora pachyrhizi; Table C3, 50 ppm a.i.): 0%
- Efficacy in % found (Phakopsora pachyrhizi; Table C3, 100 ppm a.i.): 0%
- Efficacy in % found (Phakopsora pachyrhizi; Table C3, 200 ppm a.i.): 23%

Structure (SMILES): N#Cc1c[nH]cc1-c1cccc2c1OC(F)(F)O2 [Example 13.001, fludioxonil]
- Efficacy in % found (Venturia inaequalis; Table E1, 5 ppm a.i.): 8%
- Efficacy in % found (Venturia inaequalis; Table E1, 10 ppm a.i.): 4%
- Efficacy in % found (Venturia inaequalis; Table E1, 20 ppm a.i.): 4%
- pest or weed control at 20 ppm (Puccinia triticina; Puccinia triticina, 192 h, read-out: Efficacy in % found, 20 ppm a.i.): 0%
- pest or weed control at 40 ppm (Puccinia triticina; Puccinia triticina, 192 h, read-out: Efficacy in % found, 40 ppm a.i.): 0%
- pest or weed control at 80 ppm (Puccinia triticina; Puccinia triticina, 192 h, read-out: Efficacy in % found, 80 ppm a.i.): 0%
- pest or weed control at 20 ppm (Puccinia triticina; Puccinia triticina, 192 h, read-out: Efficacy in % found, Table H1, 20 ppm a.i.): 0%
- pest or weed control at 40 ppm (Puccinia triticina; Puccinia triticina, 192 h, read-out: Efficacy in % found, Table H1, 40 ppm a.i.): 0%
- pest or weed control at 80 ppm (Puccinia triticina; Puccinia triticina, 192 h, read-out: Efficacy in % found, Table H1, 80 ppm a.i.): 22%
- pest or weed control at 20 ppm (Septoria tritici [1]; Zymoseptoria tritici, 504 h, read-out: Efficacy in % found, 20 ppm a.i.): 29%
- pest or weed control at 40 ppm (Septoria tritici [1]; Zymoseptoria tritici, 504 h, read-out: Efficacy in % found, 40 ppm a.i.): 29%
- pest or weed control at 80 ppm (Septoria tritici [1]; Zymoseptoria tritici, 504 h, read-out: Efficacy in % found, 80 ppm a.i.): 29%
- Efficacy % (Pyricularia oryzae; 0.2 ppm): 82%
- Efficacy % (Pyricularia oryzae; 1 ppm): 87% and 88%
- Efficacy % (Pyricularia oryzae; 5 ppm): 89% and 79%
- Ecotoxicity LC50-96 h found [2]: 0.89 ppm a.i.

Structure (SMILES): O=C(Cc1ccccc1)N/C(=N\OCC1CC1)c1c(C(F)(F)F)ccc(F)c1F [Example 15.008, cyflufenamid]
- Efficacy in % found (Venturia inaequalis; Table E2, 5 ppm a.i.): 0%
- Efficacy in % found (Venturia inaequalis; Table E2, 10 ppm a.i.): 0%
- Efficacy in % found (Venturia inaequalis; Table E2, 20 ppm a.i.): 4%
- Efficacy in % found (Leptosphaeria nodorum; 250 ppm a.i.): 0%
- Efficacy in % found (Leptosphaeria nodorum; 500 ppm a.i.): 0%
- Efficacy in % found (Leptosphaeria nodorum; 1000 ppm a.i.): 0%
- Efficacy in % found (Puccinia triticina; 250 ppm a.i.): 0%
- Efficacy in % found (Puccinia triticina; 500 ppm a.i.): 0%
- Efficacy in % found (Puccinia triticina; 1000 ppm a.i.): 22%
- Efficacy in % found (Septoria tritici [1]; 250 ppm a.i.): 14%
- Efficacy in % found (Septoria tritici [1]; 500 ppm a.i.): 29%
- Efficacy in % found (Septoria tritici [1]; 1000 ppm a.i.): 29%
- Efficacy % (Pyricularia oryzae; 4 ppm): 17%
- Efficacy % (Pyricularia oryzae; 20 ppm): 91%
- Ecotoxicity LC50-96 h found [2]: 5.2 ppm a.i.
